Measurements taken from patent US20060154927A1 (priority 2003, published 2006).
Like-named read-outs stand apart in the source and are kept apart here.

System: Pyricularia oryzae
Assay type: in vivo
Settings: individual active compound, rice seedlings cultivar Tai-Nong 67, protective spray, evaluated 6 days after inoculation

Row | Structure (SMILES) | Efficacy in % of the untreated control (1 ppm in the spray liquor) [%] | Efficacy in % of the untreated control (0.25 ppm in the spray liquor) [%] | Efficacy in % of the untreated control (4 ppm in the spray liquor) [%]
1 | CC1CCN(c2c(-c3c(F)cccc3Cl)c(Cl)nc3ncnn23)CC1 [A] | 11 |  | 
2 | C[C@H](Nc1c(-c2c(F)cc(F)cc2F)c(Cl)nc2ncnn12)C(F)(F)F [B] | 22 |  | 
3 | CC1CCN(c2c(-c3c(F)cc(F)cc3F)c(Cl)nc3ncnn23)CC1 [I, 5-chloro-7-(4-methylpiperidin-1-yl)-6-(2,4,6-trifluorophenyl)-[1,2,4]triazolo[1,5-a]pyrimidine] | 11 |  | 
4 | COc1ccc(C(=CC(=O)N2CCOCC2)c2ccc(Cl)cc2)cc1OC [IIa, 3-(4-chlorophenyl)-3-(3,4-dimethoxyphenyl)-1-morpholin-4-ylpropenone] |  | 0 | 0
5 | COc1ccc(C(=CC(=O)N2CCOCC2)c2ccc(F)cc2)cc1OC [IIb, 3-(4-fluorophenyl)-3-(3,4-dimethoxyphenyl)-1-morpholin-4-ylpropenone] |  | 0 | 0
